Assay results from EP2958919B1, “DIHYDROPTERIDINONES I” (Boehringer Ingelheim International GmbH, priority 2013, dated 2014).

Columns and labels:
Aβ total = Aβ total cellular assay in H4 neuroglioma cells stably expressing human APP695 (electrochemiluminescence), used for the ratio Aβ total IC50 / Aβ42 IC50; assay type: cell-based; conditions: higher ratio = more specific inhibition of Aβ42
Procedure: (§1) Cells were plated out to near confluency. The compounds to be tested were received as 10 mM stocks in 100% DMSO. A dilution series was initially generated in 100% DMSO and then diluted 200-fold in cell culture media such that the tested concentration range was 30 µM to 0.1 nM and the final DMSO concentration was 0.5%. The diluted compounds were incubated with the cells for 22 hours in an incubator at 37°C and 5% CO2. Aβ42 as well as Aβ total levels were then measured post-incubation from the supernatant of the cells. Aβ42 levels were determined using a specific electrochemiluminescence assay provided by Meso Scale Discovery (Catalog # L21CA-1) according to the manufacturer's protocol. Aβ total levels were likewise determined using a specific electrochemiluminescence assay provided by Meso Scale Discovery (Catalog # L21ZA-1) according to the manufacturer's protocol.
(§2) In order to absolutely define the described compounds as modulators of γ-Secretase as opposed to simply inhibitors of γ-Secretase, measurements of not only Aβ42 but also Aβ total are performed.

Aβ42 = Aβ42 cellular assay in H4 neuroglioma cells stably expressing human APP695 (electrochemiluminescence, Meso Scale Discovery); assay type: cell-based; conditions: 22 hours incubation, supernatant
Procedure: as §1, §2

| SMILES | IC50 (Aβ42) [nM] | Ratio Aβ(total)/Aβ42 (Aβ total) |
| --- | --- | --- |
| CCc1nc(Nc2ccc(-n3cnc(C)c3)c(OC)c2)nc2c1NC(=O)C1CC(OC)CCN21 (racemic) [Example 20] | 223 | 30 |
| CCc1nc(Nc2ccc(-n3cnc(C)c3)c(OC)c2)nc2c1N(C)C(=O)C1CC(OC)CCN21 (racemic) [Example 21] | 105 | 98 |
| COc1cc(Nc2ncc3c(n2)N2CCCCCC2C(=O)N3C)ccc1-n1cnc(C)c1 (centres unmarked) [Example 2] | 97 | 59 |
| CCN1C(=O)C2CCCCCN2c2nc(Nc3ccc(-n4cnc(C)n4)c(OC)c3)ncc21 (centres unmarked) [Example 5-3] | 265 | 101 |
| CCN1C(=O)C2CCCCCN2c2nc(Nc3cnc(-n4cnc(C)c4)c(OC)c3)ncc21 (centres unmarked) [Example 5-4] | 172 | >175 |
| CCN1C(=O)C2CCCCCN2c2nc(Nc3ccc(-n4cnc(C)c4)cc3)ncc21 (centres unmarked) [Example 5-6] | 704 | 43 |
| CCc1nc(Nc2ccc(-n3cnc(C)c3)c(OC)c2)nc2c1N(C)C(=O)C1CCCN21 (centres unmarked) [Example 6] | 84 | 96 |
| CCc1nc(Nc2ccc(-n3cnc(C)c3)c(OC)c2)nc2c1NC(=O)C1CCCN21 (centres unmarked) [Example 7] | 96 | 98 |
| CCc1nc(Nc2ccc(-c3ccnc(C)c3)cc2)nc2c1N(C)C(=O)C1CCCN21 (centres unmarked) [Example 8] | 293 | 62 |
| COc1cc(Nc2ncc3c(n2)N2CCCC2C(=O)N3C)ccc1-n1cnc(C)n1 (centres unmarked) [Example 12-1] | 2940 | >10 |
| COc1cc(Nc2ncc3c(n2)N2CCCC2C(=O)N3C)ccc1-n1ncnc1C (centres unmarked) [Example 12-4] | 754 | >39 |
| COc1cc(Nc2nc(SC)c3c(n2)N2CCCCC2C(=O)N3C)ccc1-n1cnc(C)c1 (centres unmarked) [Example 13] | 420 | 14 |
| CCc1nc(Nc2ccc(-n3cnc(C)c3)c(C#N)c2)nc2c1N(C)C(=O)[C@@H]1C[C@@H](OC)CN21 [Example 15] | 145 | 36 |
| CCc1nc(Nc2ccc(-n3cnc(C)c3)c(OC)c2)nc2c1N(CCOC)C(=O)[C@@H]1C[C@@H](OC)CN21 [Example 19-1] | 201 | 131 |
| CCc1nc(Nc2ccc(-n3cnc(C)c3)c(OC)c2)nc2c1N(C)C(=O)[C@@]1(C)C[C@@H](OC)CN21 [Example 24] | 166 | 181 |
| CCc1nc(Nc2ccc(-n3cnc(C)c3)c(OC)c2)nc2c1NC(=O)C1COCCN21 (centres unmarked) [Example 28] | 272 | 29 |
| CCc1nc(Nc2ccc(-n3cnc(C)c3)c(OC)c2)nc2c1N(C)C(=O)C1COCCN21 (centres unmarked) [Example 29] | 231 | 76 |
| COc1cc(Nc2ncc3c(n2)N2CCCOCC2C(=O)N3)ccc1-n1cnc(C)c1 (centres unmarked) [Example 30] | 312 | 96 |
| COc1cc(Nc2nc(C(C)C)c3c(n2)N2CCCC2C(=O)N3C)ccc1-n1cnc(C)c1 (centres unmarked) [Example 32] | 134 | 66 |
| CCc1nc(Nc2ccc(-n3cnc(C)c3)c(OC)c2)nc2c1N(C)C(=O)C1CCCCN21 (centres unmarked) [Example 36] | 64 | 86 |

Continued by falling IC50 (Aβ42), values first:

| IC50 (Aβ42) [nM] | SMILES | Ratio Aβ(total)/Aβ42 (Aβ total) |
| --- | --- | --- |
| 11400 | CCN1C(=O)C2CCCCCN2c2nc(Nc3ccc(-n4cnc(C)c4)cc3OC)ncc21 (centres unmarked) [Example 5-7] | 3 |
| 5750 | CN1C(=O)C2CCCN2c2nc(Nc3ccc(-c4cnn(C)c4)nc3)ncc21 (centres unmarked) [Example 12-2] | >5 |
| 1230 | CCc1nc(Nc2ccc(-c3cnc(C)o3)nc2)nc2c1N(C)C(=O)C1CCCN21 (centres unmarked) [Example 9] | >24 |
| 1100 | Cc1cn(-c2ccc(Nc3ncc4c(n3)N3CCCC3C(=O)N4C)cc2F)cn1 (centres unmarked) [Example 12-3] | >27 |
| 928 | CC(C)Cc1nc(Nc2ccc(-c3cnn(C)c3)cc2)nc2c1N(C)C(=O)C1CCCN21 (centres unmarked) [Example 34] | 30 |
| 818 | CCc1nc(Nc2ccc(-n3cnc(C)c3)c(OC)c2)nc2c1NC(=O)[C@H]1[C@@H](c3ccc(F)cc3)CCN21 (racemic) [Example 22] | 71 |
| 720 | CCCN1C(=O)C2CCCCCN2c2nc(Nc3ccc(-c4ccnc(C)c4)cc3)ncc21 (centres unmarked) [Example 5] | 14 |
| 711 | CCN1C(=O)C2CCCCCN2c2nc(Nc3ccc(-c4cnc(C)s4)c(OC)c3)ncc21 (centres unmarked) [Example 5-5] | 13 |
| 540 | COc1cc(Nc2ncc3c(n2)N2CCCOC2(C)C(=O)N3C)ccc1-n1cnc(C)c1 (centres unmarked) [Example 31] | 55 |
| 398 | CCN1C(=O)C2CCCCCN2c2nc(Nc3ccc(-c4ccnc(C)c4)cc3)ncc21 (centres unmarked) [Example 3] | 17 |
| 364 | CCc1nc(Nc2ccc(-c3cnc(C)o3)c(OC)c2)nc2c1NC(=O)[C@@H]1C[C@@H](OC)CN21 [Example 19] | 82 |
| 360 | CCc1nc(Nc2ccc(-n3cnc(C)c3)c(OC)c2)nc2c1NC(=O)[C@@]1(C)[C@@H](OC)CN21 (racemic) [Example 27] | 70 |
| 320 | COc1cc(Nc2nc(C(C)C)c3c(n2)N2CCN(C(=O)OC(C)(C)C)CC2C(=O)N3C)ccc1-n1cnc(C)c1 (centres unmarked) [Example 37] | 12 |
| 299 | CCc1nc(Nc2ccc(-n3cnc(C)c3)c(OC)c2)nc2c1NC(=O)[C@@H]1C[C@@H](OC)CN21 [Example 17] | 68 |
| 222 | CCc1nc(Nc2ccc(-n3cnc(C)c3)c(C#N)c2)nc2c1NC(=O)[C@@H]1C[C@@H](OC)CN21 [Example 16] | 33 |
| 175 | CCN1C(=O)C2CCCCCN2c2nc(Nc3ccc(-n4ccnc4)c(OC)c3)ncc21 (centres unmarked) [Example 5-2] | 64 |
| 160 | COc1cc(Nc2ncc3c(n2)N2CCCC2(C)C(=O)N3C)ccc1-n1cnc(C)c1 (centres unmarked) [Example 12] | 147 |
| 149 | CCc1nc(Nc2ccc(-c3cnc(C)o3)c(OC)c2)nc2c1N(C)C(=O)C1CCCN21 (centres unmarked) [Example 10] | 189 |
| 145 | CCc1nc(Nc2ccc(-n3cnc(C)c3)c(OC)c2)nc2c1N(C)C(=O)[C@]1(C)C[C@@H](OC)CN21 [Example 25] | 73 |
| 140 | CCc1nc(Nc2ccc(-c3cnc(C)o3)c(OC)c2)nc2c1N(C)C(=O)[C@@H]1C[C@@H](OC)CN21 [Example 18] | 215 |
| 126 | Cc1cn(-c2ccc(Nc3nc(CC(C)C)c4c(n3)N3CCCC3C(=O)N4C)cc2C#N)cn1 (centres unmarked) [Example 35] | 71 |
| 113 | CCCN1C(=O)C2CCCCCN2c2nc(Nc3ccc(-n4cnc(C)c4)c(OC)c3)ncc21 (centres unmarked) [Example 4] | 44 |
| 97 | COc1cc(Nc2ncc3c(n2)N2CCCC2C(=O)N3C)ccc1-n1cnc(C)c1 (centres unmarked) [Example 11] | >310 |
| 97 | CCc1nc(Nc2ccc(-n3cnc(C)c3)c(OC)c2)nc2c1N(C)C(=O)[C@@H]1C[C@@H](OC)CN21 [Example 14] | 67 |
| 76 | COc1cc(Nc2nc(CC(C)C)c3c(n2)N2CCCC2C(=O)N3C)ccc1-n1cnc(C)c1 (centres unmarked) [Example 33] | 171 |
| 72 | COc1cc(Nc2ncc3c(n2)N2CCCCCC2C(=O)N3C(C)C)ccc1-n1cnc(C)c1 (centres unmarked) [Example 5-1] | 109 |
| 70 | CCc1nc(Nc2ccc(-n3cnc(C)c3)c(OC)c2)nc2c1N(C)C(=O)[C@H]1[C@H](c3ccc(F)cc3)CCN21 (racemic) [Example 23] | 90 |
| 63 | COc1cc(Nc2nc(CC(C)C)c3c(n2)N2C[C@H](OC)C[C@]2(C)C(=O)N3C)ccc1-n1cnc(C)c1 [Example 26] | 253 |
| 48 | CCN1C(=O)C2CCCCCN2c2nc(Nc3ccc(-n4cnc(C)c4)c(OC)c3)ncc21 (centres unmarked) [Example 1] | 127 |
